The experiment deals with ShhN (sonic hedgehog) in nasal mucus. Put plainly: ShhN nasal mucus vs PDE inhibitor comparison (Example 10). Type of experiment: in vivo, human.

Consider `O=C(Nc1c(Cl)cncc1Cl)c1ccc(OC(F)F)c(OCC2CC2)c1` [roflumilast], for which, for the setting “Patient ID No. 11, 500 micrograms daliresp (roflumilast) orally once per day for 4 months”, the sonic hedgehog levels in nasal mucus was 6660 pg/mL.

Take `O=C1CCc2cc(OCCCCc3nnnn3C3CCCCC3)ccc2N1` [cilostazol]: the sonic hedgehog levels in nasal mucus, mean (Patient ID No. 7, 100 mg cilostazol once per day orally for 4 months) was found to be 769 pg/mL.
